This assay deals with BDF1 mice, P388 leukemia ip, median survival T/C. The assay can be described thus: NCI In Vivo Anticancer Drug Screen. Data for tumor model P388 Leukemia (intraperitoneal) in B6D2F1 (BDF1) mice. As to conditions: endpoint: median survival time, higher = longer survival. The procedure, abridged:
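Each value expresses how treatment altered survival: treated-mouse outcome over vehicle-mouse outcome, both groups bearing the transplanted tumour.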

Where [1] appears, read: dose: 100.0 mg/kg/injection, schedule: Q01DX009 (ip), vehicle: Klucel (hydroxypropylcellulose) (HPC).
The mark [2] stands for this setting: dose: 100.0 mg/kg/injection, schedule: Q04DX003 (ip), vehicle: Klucel (hydroxypropylcellulose) (HPC).
[3] abbreviates: dose: 200.0 mg/kg/injection, schedule: Q01DX009 (ip), vehicle: Klucel (hydroxypropylcellulose) (HPC).
The mark [4] stands for this setting: dose: 200.0 mg/kg/injection, schedule: Q04DX003 (ip), vehicle: Klucel (hydroxypropylcellulose) (HPC).
The mark [5] stands for this setting: dose: 50.0 mg/kg/injection, schedule: Q01DX009 (ip), vehicle: saline with Tween-80.
[6] abbreviates: dose: 100.0 mg/kg/injection, schedule: Q01DX009 (ip), vehicle: saline with Tween-80.
The mark [7] stands for this setting: dose: 200.0 mg/kg/injection, schedule: Q01DX009 (ip), vehicle: saline with Tween-80.
[8] abbreviates: dose: 100.0 mg/kg/injection, schedule: Q01DX009 (ip), vehicle: saline.
Setting [9] is: dose: 12.5 mg/kg/injection, schedule: Q01DX009 (ip), vehicle: saline with Tween-80.
Setting [10] is: dose: 25.0 mg/kg/injection, schedule: Q01DX009 (ip), vehicle: saline with Tween-80.

“And” between values parts separate entries of the source, which are not always exact repeats. Equal entries are not always repeated. Inconclusive results and toxic doses are left out.

In the case of `Nc1nc(=S)c2ncn(C3OC(COC(=O)c4ccc([N+](=O)[O-])cc4)C(OC(=O)c4ccc([N+](=O)[O-])cc4)C3OC(=O)c3ccc([N+](=O)[O-])cc3)c2[nH]1` (stereo not given), the T/C is 111 % of control under setting [1], 91 % of control under setting [2], 103 % of control under setting [3] and 91 % of control under setting [4].
For `CCCCCCCN1C=CCC(S(=O)(=O)N2CCOCC2)=C1`, the T/C runs as follows: under setting [5], 109 % of control; under setting [6], 99 % of control; under setting [7], 109 % of control.
As for `COc1ccc2c(c1OC)C(=O)O[C@@H]2[C@H]1c2c(cc3c(c2OC)OCO3)CCN1C`, the T/C reads like this: (dose: 31.3 mg/kg/injection, schedule: Q01DX010 (ip), vehicle: saline) 95 % of control; (dose: 62.5 mg/kg/injection, schedule: Q01DX010 (ip), vehicle: saline) 104 % of control; (dose: 125.0 mg/kg/injection, schedule: Q01DX010 (ip), vehicle: saline) 100 % of control; (dose: 250.0 mg/kg/injection, schedule: Q01DX010 (ip), vehicle: saline) 100 % of control.
In the case of `C[C@]12CCC(=O)C[C@@H]1CC[C@@H]1[C@@H]2CC[C@]2(C)[C@@H](OC(=O)N(CCCl)N=O)CC[C@@H]12`, under setting [8], the T/C is 100 % of control.
Take `CO[C@H]1CC[C@@]2(C)C(=CC[C@H]3[C@@H]4C[C@H](O)C[C@@]4(C)CC[C@@H]32)C1`: the T/C runs as follows: (dose: 12.5 mg/kg/injection, schedule: Q01DX010 (ip), vehicle: other) 105 % of control; (dose: 25.0 mg/kg/injection, schedule: Q01DX010 (ip), vehicle: other) 90 % of control and 120 % of control.
As for `C=CCCCCCC/C=C\CCCCC`, for the setting “dose: 50.0 mg/kg/injection, schedule: Q01DX010 (ip), vehicle: alcohol”, the T/C is 104 % of control.
For the compound `COc1ccc2c(c1)CC[C@@H]1[C@@H]2CC[C@@]2(C)[C@H]1CC[C@@]2(O)C(F)=C(F)F`, the T/C under setting [5] was 118 % of control, the T/C under setting [6] is 113 % of control and the T/C under setting [7] was 104 % of control.
For `O=C1OC2(CCCCC2)Cc2oc3ccccc3c(=O)c21`, the T/C by setting is: (dose: 50.0 mg/kg/injection, schedule: Q01DX005 (ip), vehicle: Klucel (hydroxypropylcellulose) (HPC)) 87 % of control; (dose: 200.0 mg/kg/injection, schedule: Q01DX005 (ip), vehicle: Klucel (hydroxypropylcellulose) (HPC)) 92 % of control.
Take `[NH-]C(CCC(N)=O)C(=O)O.[NH-]C(CCC(N)=O)C(=O)O.[Zn+2]` (stereo not given): the T/C was 91 % of control under setting [9], 108 % of control under setting [10] and 121 % of control under setting [5].
Regarding `c1ccc(CSSCc2ccccc2)cc1`, the T/C was 104 % of control (dose: 75.0 mg/kg/injection, schedule: Q01DX009 (ip), vehicle: Klucel (hydroxypropylcellulose) (HPC)); 90 % of control under setting [1]; 100 % of control under setting [2]; 100 % of control (dose: 150.0 mg/kg/injection, schedule: Q01DX009 (ip), vehicle: Klucel (hydroxypropylcellulose) (HPC)); 86 % of control under setting [3]; 95 % of control under setting [4]. In addition, the T/C runs as follows: (dose: 300.0 mg/kg/injection, schedule: Q01DX009 (ip), vehicle: Klucel (hydroxypropylcellulose) (HPC)) 90 % of control; (dose: 400.0 mg/kg/injection, schedule: Q04DX003 (ip), vehicle: Klucel (hydroxypropylcellulose) (HPC)) 95 % of control.
As to `Oc1c(Cl)c(Cl)c(Cl)c(Cl)c1Cl` (tested in a mixture with another compound), the T/C under setting [10] was 109 % of control.
Regarding `CC(C)(C)C1CC[N-]CC1.CC(C)(C)C1CC[N-]CC1.[Cl][Pt+2][Cl]`, the T/C is 104 % of control (dose: 25.0 mg/kg/injection, schedule: Q01DX009 (ip), vehicle: Klucel (hydroxypropylcellulose) (HPC)); 106 % of control (dose: 50.0 mg/kg/injection, schedule: Q01DX009 (ip), vehicle: Klucel (hydroxypropylcellulose) (HPC)); 117 % of control under setting [1]; 107 % of control under setting [3].
Take `CC(O)(C(N)=O)c1cc(Cl)ccc1Cl` (stereo not given): the T/C by setting is: (dose: 100.0 mg/kg/injection, schedule: Q01DX009 (ip), vehicle: water) 110 % of control; (dose: 100.0 mg/kg/injection, schedule: Q04DX003 (ip), vehicle: water) 109 % of control; (dose: 200.0 mg/kg/injection, schedule: Q01DX009 (ip), vehicle: water) 110 % of control; (dose: 200.0 mg/kg/injection, schedule: Q04DX003 (ip), vehicle: water) 100 % of control; (dose: 400.0 mg/kg/injection, schedule: Q01DX009 (ip), vehicle: water) 90 % of control; (dose: 400.0 mg/kg/injection, schedule: Q04DX003 (ip), vehicle: water) 95 % of control.
Consider `Cc1cccc(CSc2nc(N)nc3ncn(C4CC(O)C(CO)O4)c23)n1` (stereo not given), for which the T/C under setting [8] is 103 % of control; the T/C (dose: 100.0 mg/kg/injection, schedule: Q04DX003 (ip), vehicle: saline) was 100 % of control; the T/C (dose: 200.0 mg/kg/injection, schedule: Q01DX009 (ip), vehicle: saline) was 97 % of control; the T/C (dose: 200.0 mg/kg/injection, schedule: Q04DX003 (ip), vehicle: saline) is 104 % of control; the T/C (dose: 400.0 mg/kg/injection, schedule: Q01DX009 (ip), vehicle: saline) was 103 % of control; the T/C (dose: 400.0 mg/kg/injection, schedule: Q04DX003 (ip), vehicle: saline) was 100 % of control.
As for `CCCCCCCCCCCCCCCCCC(=O)[O][Sn]([CH2]CCC)([CH2]CCC)[O]C(=O)CCCCCCCCCCCCCCCCC`, the T/C (dose: 12.5 mg/kg/injection, schedule: Q04DX003 (ip), vehicle: other) is 121 % of control.
`COc1cc2c(cc1OC)C1CNC(=O)C1C(c1ccccc1)C2` (stereo not given): the T/C is 100 % of control (dose: 50.0 mg/kg/injection, schedule: Q01DX001 (ip), vehicle: Klucel (hydroxypropylcellulose) (HPC)); 95 % of control (dose: 100.0 mg/kg/injection, schedule: Q01DX001 (ip), vehicle: Klucel (hydroxypropylcellulose) (HPC)); 100 % of control (dose: 200.0 mg/kg/injection, schedule: Q01DX001 (ip), vehicle: Klucel (hydroxypropylcellulose) (HPC)); 96 % of control (dose: 400.0 mg/kg/injection, schedule: Q01DX001 (ip), vehicle: Klucel (hydroxypropylcellulose) (HPC)).
Turning to `CC(C)(O)c1ccccc1S(=O)(=O)c1ccccc1C(C)(C)O`, the T/C (dose: 100.0 mg/kg/injection, schedule: Q04DX002 (ip), vehicle: saline with Tween-80) is 94 % of control; the T/C (dose: 200.0 mg/kg/injection, schedule: Q04DX002 (ip), vehicle: saline with Tween-80) was 93 % of control; the T/C (dose: 400.0 mg/kg/injection, schedule: Q04DX002 (ip), vehicle: saline with Tween-80) was 89 % of control.
For the compound `CCCC(O)C(C)(C)[N+](=O)[O-]` (stereo not given), the T/C is 99 % of control (dose: 6.25 mg/kg/injection, schedule: Q01DX009 (ip), vehicle: saline with Tween-80) and 89 % of control under setting [9].
In the case of `O=C(CI)N1c2ccccc2Sc2ccc3ccccc3c21`, the T/C under setting [5] is 91 % of control, the T/C under setting [6] was 96 % of control and the T/C under setting [7] is 116 % of control.
As to `c1ccc2c(c1)ccc1c2c[n+](CCCCCCCC[n+]2cc3c4ccccc4ccc3c3ccccc32)c2ccccc12`, the T/C by setting is: (dose: 1.56 mg/kg/injection, schedule: Q01DX009 (ip), vehicle: other) 165 % of control; (dose: 6.25 mg/kg/injection, schedule: Q01DX009 (ip), vehicle: other) 98 % of control; (dose: 12.5 mg/kg/injection, schedule: Q01DX009 (ip), vehicle: other) 106 % of control; (dose: 25.0 mg/kg/injection, schedule: Q01DX009 (ip), vehicle: other) 95 % of control.

The values above are taken from PubChem BioAssay AID328 (DTP/NCI, 2004).
